Each structure is given as a SMILES string. Activity calls are given as the source filed them. No cut-off for these calls is given here. Some results are limits rather than exact numbers.

A word on the Ki: it is a dissociation constant, usually derived from enzyme kinetics or from competition with a known ligand. As usually defined, the IC50 is the concentration that gives 50% inhibition. A higher IC50 goes with weaker potency in that assay.

The test system of one assay is Claviceps purpurea. The assay is described as follows: Inhibition of Claviceps purpurea type 1 IDI.
A short description of assay [1]: Competitive inhibition of recombinant N-terminal hexaHis-tagged Staphylococcus aureus MS4 DSQS expressed in Escherichia coli Rosetta(DE3) using varying levels of FPP as substrate by Line weaver Burk plot analysis.
In assay [2] the target is T1, Farnesyl pyrophosphate synthase (Homo sapiens, UniProt P14324).
T1 sequence (P14324 whole entry): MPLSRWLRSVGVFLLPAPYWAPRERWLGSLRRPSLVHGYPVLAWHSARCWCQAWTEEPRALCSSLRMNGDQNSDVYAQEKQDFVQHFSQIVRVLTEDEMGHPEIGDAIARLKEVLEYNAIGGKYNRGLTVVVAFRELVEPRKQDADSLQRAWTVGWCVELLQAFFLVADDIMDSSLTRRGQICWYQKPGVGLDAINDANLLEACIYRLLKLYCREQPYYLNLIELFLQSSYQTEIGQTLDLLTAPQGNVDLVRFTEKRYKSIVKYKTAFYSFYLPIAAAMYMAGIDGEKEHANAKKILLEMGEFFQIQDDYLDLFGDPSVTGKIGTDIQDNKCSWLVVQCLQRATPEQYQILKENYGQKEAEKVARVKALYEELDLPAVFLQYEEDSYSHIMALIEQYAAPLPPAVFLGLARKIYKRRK
The experiment in a line: Inhibition of N-terminal hexaHis-tagged human FPPS (6 to 353 residues) expressed in Escherichia coli using GPP and IPP as substrate by enzyme coupled assay.

A short description of assay [3]: Inhibition of full-length N-terminal hexaHis-tagged Escherichia coli type 1 IDI using IPP as substrate by enzyme coupled assay.
Assay [4] in a line: Competitive inhibition of full-length N-terminal hexaHis-tagged Escherichia coli type 1 IDI using varying levels of IPP as substrate by Line weaver Burk plot analysis.
Assay [5] in a line: Inhibition of 4-DMATS (unknown origin).

Take `CN(C)CCOP(=O)(O)OP(=O)(O)O`: the Kdiss in the assay on Claviceps purpurea is < 1.2 10^-10M.

Regarding `CC(C)=CCC/C(C)=C/CC/[N+](C)=C/NCP(=O)(O)CP(=O)([O-])O`, in assay [1], the Ki amounted to 4.2 µM.

With `CC(C)CCCC(C)CCCN(C)C(=O)NCP(=O)(O)CP(=O)(O)O` (stereo unspecified), in assay [1], the Ki came out at 0.61 µM.

Consider `CC(C)=CCC/C(C)=C/CC/[N+](C)=C(\N)NCP(=O)(O)CP(=O)([O-])O`, for which the Ki in assay [1] was 1.9 µM.

With `NCP(=O)(O)CP(=O)(O)O`, the figures for the IC50 in assay [2] and in assay [3] were 150 µM and 15 µM, respectively. The molecule also gave a Ki in assay [4] of 4.2 µM. The inhibition result in assay [5] was “inactive”.

Take `NC(N)=NCP(=O)(O)CP(=O)(O)O`: the IC50 stood at 233 µM in assay [2] and 0.3 µM in assay [3]. Further, the Ki in assay [4] came to 0.12 µM. Also, the inhibition entry in assay [5] is “inactive”.

Take `CC(=O)NCP(=O)(O)CP(=O)(O)O`: the half-maximal inhibitory concentration (IC50) came to 177 µM in assay [2] and 190 µM in assay [3]. In assay [4], this molecule displayed a Ki of 51.7 µM. The inhibition entry in assay [5] is “inactive”.

(Values after ChEMBL document CHEMBL4699520, “A guanidinium-based inhibitor of a type I isopentenyl diphosphate isomerase” (Bioorg Med Chem Lett, 2020).)
